# Measured values: article PMC6389625, “The Impact and Mechanism of a Novel Allosteric AMPA Receptor Modulator LCX001 on Protection Against Respiratory Depression in Rodents” (Frontiers in Pharmacology, 2019)
# What was measured:
# [1] = test system: rodents; experiment: Observation of over-excitability after administration; format: in vivo; settings: up to 60 mg/kg
# [2] = molecular target: T1, recombinant homomeric GluA2(R)flop receptor (Rattus norvegicus, UniProt P19491, Q607R); experiment: Whole-cell patch-clamp recording of glutamate-evoked currents in HEK293 cells; format: cell-based
# T1 construct: rat AMPA-GluA2(R)flop cDNA corresponding to the entire coding region; expressed in transfected cells
# Procedure: A wild-type rat AMPA-GluA2(R)flop cDNA corresponding to the entire coding region was generated and cloned into the pcDNA^TM3.1(+) vector (Invitrogen, China, Catalog no. V790-20) by Sangon Biotech Co., Ltd. (Shanghai, China). […] For stable transfection, HEK293 cells (3 × 10^4 cells/well) were seeded in 24-well plates the day before transfection. The cells were grown to 70–90% confluency, and the transfection was performed by adding 1 μg of GluA2 expressing vector per well. Twenty-four hours after transfection, the normal medium was replaced with DMEM/F12 (Gibco, Shanghai, China) growth medium supplemented with 1.0 mg/ml G418 (Gibco, Shanghai, China) and cultured for 7 days. The surviving cells were pelleted and dispersed (100 cells/20 ml), and then seeded into 96-well plates in DMEM/F12 medium containing 500 μg/ml G418. Discrete colonies were picked after 15 days of selection. Western blotting and whole-cell patch-clamp recording were performed to test expression of the AMPA receptor GluA2 subunit and formation of an AMPA-GluA2 ion channel. G418 was kept at 500 μg/ml for the maintenance of stably transfected clones.
# HEK293 cells that stably expressed AMPA-GluA2 receptors were seeded into the recording chamber 2 days before patch-clamp recordings, and the experiments were conducted in whole-cell configuration. Thin-walled borosilicate glass (Sutter Instrument, CA, United States) was pulled to make patch pipettes. […] The holding potential was set as -80 mV by an Axopatch-700B amplifier (Axon Instruments, CA, United States), and pClamp8 software (Axon Instruments, CA, United States) was used for data acquisition. Currents were recorded and digitized at 10 kHz. […] LCX001 and CX614 were dissolved in dimethyl sulfoxide (DMSO) before dilution with external bath solution (DMSO final concentration 0.5%). Dose-response curves were fitted to the Hill equation using Origin 9.0 software.
# [3] = test system: AMPA receptors; experiment: [3H]AMPA binding to brainstem membranes; set-up: species or system rat; settings: for specific [3H]AMPA binding: 200 nM [3H]AMPA
# Procedure: Adult male SD rats (220–250 g) were euthanized by decapitation. The brainstems were dissected and homogenized for 2 min in 15 volumes of ice-cold 50 mM Tris–HCl buffer (pH 7.4) at 4°C. The homogenates were centrifuged at 1,000 g for 10 min, and the supernatants were collected and centrifuged at 40,000 g for 20 min. The pellets were dispersed in 50 mM Tris-HCl pH 7.4 and centrifuged at 40,000 g for 20 min. The last procedures were repeated a third time with a total of four washes to eliminate endogenous glutamate from the tissue. The resulting pellets were suspended in eight volumes of 0.3 M sucrose, then stored at –70°C until use. […] The binding reaction was performed in disposable glass culture tubes at 25°C for 60 min. […] The pellets were washed with ice-cold Tris-HCl pH 7.4 three times and dried with a piece of tissue paper. […] The binding activity on the filters was detected using a LS6500 scintillation counter (Beckman, Shanghai, China). […] Data are presented as the mean ± standard error of the mean (SEM). In the acetic acid writhing and hot-plate tests, experiments were performed blind. Compounds were injected by one researcher and the behavior or data was recorded by another researcher. The significance of change in respiratory parameters was evaluated by repeated measures two-way ANOVA (dose × time) followed by Bonferroni post-hoc tests for comparisons between groups. In the analysis of the acetic acid writhing test, hot-plate test and [^3H]AMPA binding assay, statistical evaluation between the treated groups and control group was performed by one-way ANOVA followed by Dunnett’s test. For saturation binding with [^3H]AMPA, Kd and Bmax values of different groups were obtained from fits to saturation binding curves with the KaleidaGraph programme. For whole-cell patch-clamp recordings, dose-response curves were fitted to the Hill equation using Origin 9.0 software (Originlab, MA, United States) and statistical significance was determined by one-way ANOVA followed by Dunnett’s test. For live cell imaging, two-way ANOVA followed by Bonferroni post-hoc tests was used to compare the treated groups and vehicle group.
# [4] = test system: male KM mice; experiment: Acetic acid writhing test; format: in vivo, mouse; settings: for inhibition of acetic acid-induced writhing: 10 min before 0.6% acetic acid
# [5] = test system: SEP-GluA1; experiment: Live cell imaging of SEP-GluA1 surface expression in primary medulla oblongata neurons; format: cell-based, rat; settings: 47 μM final, added at 2 min; P > 0.05
# [6] = test system: intracellular calcium concentration ([Ca^2+]i) of cultured medullary neurons; experiment: Ca2+ imaging (Fluo-4 NW) in primary medulla oblongata neurons; format: cell-based, rat; settings: 40 μM final at 7 min, after glutamate 18 μM and fentanyl or TH-030418 42 μM
# [7] = test system: unanaesthetised adult male SD rats
# [8] = molecular target: T2, SEP-GluA2(R) (Rattus norvegicus, UniProt P19491, Q607R); experiment: Live cell imaging of SEP-GluA2(R) surface expression in primary medulla oblongata neurons; format: cell-based; settings: 47 μM final, added at 2 min
# T2 construct: adenovirus by Hanbio biotechnology plasmid #24001; host or cells: primary medulla oblongata neurons of neonatal SD rats
# [9] = test system: female KM mice; experiment: Hot-plate test; format: in vivo, mouse
# [10] = test system: rat dentate gyrus; set-up: method as in Street et al., 2008; Mueller and Street, 2012; settings: ref Street et al., 2008, Mueller and Street, 2012; cited from earlier work
# T1 sequence (P19491 22-883 Q607R): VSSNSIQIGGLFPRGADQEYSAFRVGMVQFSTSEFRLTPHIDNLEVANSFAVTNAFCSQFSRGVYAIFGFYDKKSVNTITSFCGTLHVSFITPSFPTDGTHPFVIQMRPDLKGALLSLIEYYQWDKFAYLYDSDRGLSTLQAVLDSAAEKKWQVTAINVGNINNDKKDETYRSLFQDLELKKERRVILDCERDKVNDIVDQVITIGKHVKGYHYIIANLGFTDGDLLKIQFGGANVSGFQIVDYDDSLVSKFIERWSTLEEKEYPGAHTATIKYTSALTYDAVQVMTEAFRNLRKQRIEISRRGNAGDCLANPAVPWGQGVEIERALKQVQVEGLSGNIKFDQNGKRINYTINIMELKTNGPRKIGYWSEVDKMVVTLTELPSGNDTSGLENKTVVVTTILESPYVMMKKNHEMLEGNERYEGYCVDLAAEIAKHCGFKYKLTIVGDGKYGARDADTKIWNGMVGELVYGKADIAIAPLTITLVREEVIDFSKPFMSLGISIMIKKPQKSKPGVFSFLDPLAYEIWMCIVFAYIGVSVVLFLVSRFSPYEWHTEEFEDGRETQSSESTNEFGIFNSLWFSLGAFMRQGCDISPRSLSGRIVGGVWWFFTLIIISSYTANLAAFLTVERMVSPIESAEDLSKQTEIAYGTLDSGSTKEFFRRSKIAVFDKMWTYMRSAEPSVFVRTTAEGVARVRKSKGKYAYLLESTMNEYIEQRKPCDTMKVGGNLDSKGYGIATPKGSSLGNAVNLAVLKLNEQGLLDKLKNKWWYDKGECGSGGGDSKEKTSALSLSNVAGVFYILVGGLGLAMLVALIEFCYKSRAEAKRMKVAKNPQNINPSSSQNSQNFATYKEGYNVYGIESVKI
# T2 sequence (P19491 22-883 Q607R): as above
smiles,measurement,setting,value
"CN(C(=O)c1ccc2nonc2c1)[C@H]1CC[C@H](O)CC1 [LCX001, N-((1r,4r)-4-hydroxycyclohexyl)-N-methylbenzo[c][1,2,5]oxadiazole-5-carboxamid]",over-excitability after administration,[1],no evidence of over-excitability
same,nH of glutamate concentration-response curve in the presence of modulator,[2]; 100 μM modulator,0.84
same,glutamate evoked peak amplitude,"[2]; 3.5 mM glutamate, 100 μM modulator, control 432 ± 27 pA",711 ± 20 pA
same,glutamate evoked peak amplitude,"[2]; 10 mM glutamate, 100 μM modulator, control 752 ± 35 pA",1120 ± 60 pA
same,current induced by compound alone,[2]; in the absence of glutamate,no current
same,specific [3H]AMPA binding,"[3]; LCX001 10^-4 M, control 1595 ± 30",2095 ± 87 cpm/mg protein
same,Bmax of [3H]AMPA after pre-incubation with LCX001,"[3]; LCX001 10^-4 M, without LCX001 6.89 ± 0.11",7.77 ± 0.17 pmol/mg of protein
same,specific [3H]AMPA binding,"[3]; LCX001 10^-5 M, control 1595 ± 30",1964 ± 27 cpm/mg protein
same,specific [3H]AMPA binding,"[3]; LCX001 10^-6 M, control 1595 ± 30",1857 ± 20 cpm/mg protein
same,specific [3H]AMPA binding,"[3]; LCX001 10^-9–10^-7 M, control 1595 ± 30 cpm/mg protein",unchanged
same,inhibition of acetic acid-induced writhing,[4]; 1.5 mg/kg i.v.,30.76 ± 12.75%
same,inhibition of acetic acid-induced writhing,[4]; 3 mg/kg i.v.,41.43 ± 11.32%
same,inhibition of acetic acid-induced writhing,[4]; 6 mg/kg i.v.,85.35 ± 9.53%
same,inhibition of acetic acid-induced writhing,[4]; 12 mg/kg i.v.,94.78 ± 2.74%
same,impact on the analgesic effect of morphine (writhing test),"[4]; LCX001 12 mg/kg i.v. 10 min before morphine 2.5 mg/kg s.c., P > 0.05",no impact
same,SEP-GluA1 fluorescence intensity,[5],no impact
same,effect on the increased level of [Ca^2+]i in response to fentanyl and TH-030418,[6],significantly blocked
same,effect on Nembutal-induced respiratory depression,"[7]; LCX001 10 mg/kg i.v. 5 min after Nembutal 80 mg/kg i.p., P < 0.05",ameliorated respiratory depression
same,effect on TH-030418-induced respiratory depression,"[7]; LCX001 10 mg/kg i.v. 5 min after TH-030418 20 μg/kg i.v., P < 0.05",alleviated the reduction of respiratory parameters
same,"effect on fentanyl-induced respiratory depression (respiratory frequency, minute ventilation)","[7]; LCX001 10 mg/kg i.v. 5 min after fentanyl 120 μg/kg s.c., P < 0.05",effectively countered the inhibition of respiratory frequency and minute ventilation
same,effect on propofol-induced respiratory depression,"[7]; LCX001 10 mg/kg i.v. 10 min before propofol 30 mg/kg i.v., P < 0.05",reversed the acute reduction of respiratory frequency and minute ventilation
same,SEP-GluA2 fluorescence intensity,[8],significant and fast increase
same,%MPE compared with vehicle,"[9]; 1.5 mg/kg i.v., 10 min after administration, P > 0.05",no effect
same,%MPE compared with vehicle,"[9]; 3 mg/kg i.v., 10 min after administration, P > 0.05",no effect
same,%MPE,"[9]; 6 mg/kg i.v., 10 min after administration",30.18 ± 10.56%
same,%MPE,"[9]; 12 mg/kg i.v., 10 min after administration",65.27 ± 12.22%
same,impact on the analgesic effect of morphine (hot-plate test),"[9]; LCX001 12 mg/kg i.v. 10 min before morphine 10 mg/kg s.c., P > 0.05",no impact
same,increase in the amplitude of synaptic currents,[10],21%
"CCCC(C)C1(CC)C(=O)NC(=O)NC1=O (stereo not shown) [Nembutal, reference compound]",respiratory frequency,"[7]; male, SD, rat, in vivo",70.3 ± 2.7 % of control
"Cc1o[nH]c(=O)c1CC(N)C(=O)O (stereo not shown) [[^3H]AMPA, reference compound]",Bmax of [3H]AMPA saturation binding,"[3]; without LCX001, one-site model",6.89 ± 0.11 pmol/mg of protein
same,Kd,"[3]; without LCX001, one-site model, read-out: Kd of [3H]AMPA saturation binding",171 ± 5 nM
"CN1CC[C@]23c4c5ccc(O)c4O[C@H]2[C@@H](O)C=C[C@H]3[C@H]1C5 [morphine, reference compound]",%MPE,"[9]; 10 mg/kg s.c., 30 min after injection, 55°C",about 100%
"CC(C)c1cccc(C(C)C)c1O [propofol, reference compound]",duration of propofol-mediated respiratory depression,"[7]; male, SD, rat, in vivo",15 to 25 min
same,respiratory frequency,"[7]; male, SD, rat, in vivo",53.6 ± 5.8 % of control
